For this assay, the system named is 5637. The assay is described as follows: Inhibition of type-1 pilus-mediated Escherichia coli HB101 adhesion to human 5637 cells after 1 hr. The format is cell-based. To be noted: dose or concentration not given here.

SMILES strings stand for the structures.

Consider `CN(C)Cc1c(Cc2cccc3ccccc23)c(-c2ccccc2)c2n(c1=O)[C@H](C(=O)O)CS2`, for which the inhibition (as a rule, the share of the control response that was lost under treatment) came to 90%.
